The experiment concerns the target T1, human GIPR (Homo sapiens, UniProt P48546).
T1 construct: host or cells: CHO-K1
T1 sequence (P48546 22-466): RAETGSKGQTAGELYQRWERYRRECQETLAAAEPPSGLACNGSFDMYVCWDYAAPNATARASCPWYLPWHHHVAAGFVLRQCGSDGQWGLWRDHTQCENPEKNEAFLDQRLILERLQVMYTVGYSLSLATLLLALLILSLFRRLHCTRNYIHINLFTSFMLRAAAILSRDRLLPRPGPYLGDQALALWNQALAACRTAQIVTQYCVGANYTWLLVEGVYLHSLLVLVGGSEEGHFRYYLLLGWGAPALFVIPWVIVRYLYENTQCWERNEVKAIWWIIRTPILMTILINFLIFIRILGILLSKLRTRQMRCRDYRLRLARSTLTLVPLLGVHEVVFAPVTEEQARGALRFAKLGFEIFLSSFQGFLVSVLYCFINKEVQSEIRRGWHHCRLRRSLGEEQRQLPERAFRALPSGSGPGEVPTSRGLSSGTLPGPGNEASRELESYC
The experiment in a line: cAMP production in CHO-K1 cells expressing human GIPR (LANCE cAMP assay). Conditions: for Emax: CHO-K1, read-out: % activation of cAMP (maximal stimulation). It is filed as cell-based. Here is the method: CHO—K1 cells expressing human GIPR were obtained from DiscoverX Corporation (Fremont, Calif.). The cells were cultured in Ham's F-12 nutrient media supplemented with 10% foetal bovine serum, 800 μg/ml geneticin, 300 μg/ml hydromycin, 2 mM L-glutamine, and Penicillin-streptomycin (100 units, 100 μg) at 37° C. in a 5% CO2 incubator. The cells were harvested at 90% confluence.
The cells were suspended in Ham's F-12 nutrient media to a concentration of 200,000 cells/ml. The cells were then plated in a 384 well plate at with […] of the suspension added per well. The cells were incubated overnight at 37° C. in a 5% CO2 incubator.
The activity of the compounds was determined by stimulating the CHO—K1 cells with the test compound, and measuring the levels of cAMP produced. The activity of the compounds was compared to the activity of native GIP, as GIP stimulates cAMP production. 6 μl of the test compound in stimulation buffer (990 ml Hank's Balanced Salt solution (HBSS) (1×) (Invitrogen Corp #14025-092), 10 ml Hepes buffer solution (1 mol·L) (Invitrogen Corp 15630-080), 1 g BSA (final 0.1%), and 1 ml IBMX 250 mM stock prepared fresh in DMSO (Sigma-Aldrich 15879)) were added to cells, followed by 6 μl of Alexa Fluor® 647-anti cAMP antibody (Perkin Elmer) in stimulation buffer. […] The well plate was centrifuged for 3 min at 300 rpm, and incubated at room temperature for 45 minutes. 12 μl of detection mixture (biotin cAMP and EUW8044 labeled streptavidin (Eu-SA) in cAMP Detection Buffer (Perkin Elmer)) was added and incubated for 60 min at room temperature.
The levels of cAMP produced were measured according to the detailed protocol outlined in the Perkin Elmer LANCE cAMP Assay Perkin Elmer Lance cAMP Kit manual. The activity of the compounds was compared to the activity of native GIP.
The plates are read on a TRF detection instrument, EnVision® (Perkin Elmer) (excitation at 340 nm and emission at 665 nm). The values of the cAMP signal are obtained from the standard cAMP curve and used to determine the amount of maximal stimulation, and EC50 for stimulating the cAMP signal.
(Cyclic AMP is a second messenger, typically raised through Gs and lowered through Gi signalling.)

In general, EC50 refers to the concentration that produces a half-maximal response. For `CC[C@H](C)[C@H](NC(=O)[C@H](CO)NC(=O)[C@H](Cc1ccc(O)cc1)NC(=O)[C@H](CC(=O)O)NC(=O)[C@H](CO)NC(=O)[C@@H](NC(=O)[C@H](Cc1ccccc1)NC(=O)[C@@H](NC(=O)CNC(=O)[C@H](CCC(=O)O)NC(=O)[C@H](C)NC(=O)CCc1ccc(O)cc1)[C@@H](C)O)[C@@H](C)CC)C(=O)N[C@@H](C)C(=O)N[C@@H](CCSC)C(=O)N[C@@H](CC(=O)O)C(=O)N[C@@H](CCCCN)C(=O)N[C@H](C(=O)N[C@@H](Cc1c[nH]cn1)C(=O)N[C@@H](CCC(N)=O)C(=O)N[C@@H](CCC(N)=O)C(=O)N[C@@H](CC(=O)O)C(=O)N[C@@H](Cc1ccccc1)C(=O)N[C@H](C(=O)N[C@@H](CC(N)=O)C(=O)N[C@@H](Cc1c[nH]c2ccccc12)C(=O)N[C@@H](CC(C)C)C(=O)N[C@@H](CC(C)C)C(=O)N[C@@H](C)C(=O)N[C@@H](CCC(N)=O)C(=O)N[C@@H](CCCCN)C(N)=O)C(C)C)[C@@H](C)CC` [Example 7], the EC50 stood at 0.095 nM and the Emax worked out at 103%.
The like results for `CC[C@H](C)[C@H](NC(=O)[C@H](CO)NC(=O)[C@H](Cc1ccc(O)cc1)NC(=O)[C@H](CC(=O)O)NC(=O)[C@H](CO)NC(=O)[C@@H](NC(=O)[C@H](Cc1ccccc1)NC(=O)[C@@H](NC(=O)CNC(=O)[C@H](CCC(=O)O)NC(=O)[C@H](C)NC(=O)[C@@H](Cc1c[nH]c2ccccc12)NC(C)=O)[C@@H](C)O)[C@@H](C)CC)C(=O)N[C@@H](C)C(=O)N[C@@H](CCSC)C(=O)N[C@@H](CC(=O)O)C(=O)N[C@@H](CCCCN)C(=O)N[C@H](C(=O)N[C@@H](Cc1c[nH]cn1)C(=O)N[C@@H](CCC(N)=O)C(=O)N[C@@H](CCC(N)=O)C(=O)N[C@@H](CC(=O)O)C(=O)N[C@@H](Cc1ccccc1)C(=O)N[C@H](C(=O)N[C@@H](CC(N)=O)C(=O)N[C@@H](Cc1c[nH]c2ccccc12)C(=O)N[C@@H](CC(C)C)C(=O)N[C@@H](CC(C)C)C(=O)N[C@@H](C)C(=O)N[C@@H](CCC(N)=O)C(=O)N[C@@H](CCCCN)C(N)=O)C(C)C)[C@@H](C)CC` [Example 10] were, in that order, 0.1 nM and 102%.
`CC[C@H](C)[C@H](NC(=O)[C@H](CO)NC(=O)[C@H](Cc1ccc(O)cc1)NC(=O)[C@H](CC(=O)O)NC(=O)[C@H](CO)NC(=O)[C@@H](NC(=O)[C@H](Cc1ccccc1)NC(=O)[C@@H](NC(=O)CNC(=O)[C@H](CCC(=O)O)NC(=O)[C@H](C)NC(=O)[C@@H](Cc1ccccc1)NC(C)=O)[C@@H](C)O)[C@@H](C)CC)C(=O)N[C@@H](C)C(=O)N[C@@H](CCSC)C(=O)N[C@@H](CC(=O)O)C(=O)N[C@@H](CCCCN)C(=O)N[C@H](C(=O)N[C@@H](Cc1c[nH]cn1)C(=O)N[C@@H](CCC(N)=O)C(=O)N[C@@H](CCC(N)=O)C(=O)N[C@@H](CC(=O)O)C(=O)N[C@@H](Cc1ccccc1)C(=O)N[C@H](C(=O)N[C@@H](CC(N)=O)C(=O)N[C@@H](Cc1c[nH]c2ccccc12)C(=O)N[C@@H](CC(C)C)C(=O)N[C@@H](CC(C)C)C(=O)N[C@@H](C)C(=O)N[C@@H](CCC(N)=O)C(=O)N[C@@H](CCCCN)C(N)=O)C(C)C)[C@@H](C)CC` [Example 8]: the EC50 is 0.685 nM and the Emax was 102%.
For `CC[C@H](C)[C@H](NC(=O)[C@H](CO)NC(=O)[C@H](Cc1ccc(O)cc1)NC(=O)[C@H](CC(=O)O)NC(=O)[C@H](CO)NC(=O)[C@@H](NC(=O)[C@H](Cc1ccccc1)NC(=O)[C@@H](NC(=O)CNC(=O)[C@H](CCC(=O)O)NC(=O)[C@H](C)NC(=O)CCc1ccccc1)[C@@H](C)O)[C@@H](C)CC)C(=O)N[C@@H](C)C(=O)N[C@@H](CCSC)C(=O)N[C@@H](CC(=O)O)C(=O)N[C@@H](CCCCN)C(=O)N[C@H](C(=O)N[C@@H](Cc1c[nH]cn1)C(=O)N[C@@H](CCC(N)=O)C(=O)N[C@@H](CCC(N)=O)C(=O)N[C@@H](CC(=O)O)C(=O)N[C@@H](Cc1ccccc1)C(=O)N[C@H](C(=O)N[C@@H](CC(N)=O)C(=O)N[C@@H](Cc1c[nH]c2ccccc12)C(=O)N[C@@H](CC(C)C)C(=O)N[C@@H](CC(C)C)C(=O)N[C@@H](C)C(=O)N[C@@H](CCC(N)=O)C(=O)N[C@@H](CCCCN)C(N)=O)C(C)C)[C@@H](C)CC` [Example 9], the response was half-maximal at 0.797 nM (EC50) and the Emax amounted to 101%.
As to `CC[C@H](C)[C@H](NC(=O)[C@H](CO)NC(=O)[C@H](Cc1ccc(O)cc1)NC(=O)[C@H](CC(=O)O)NC(=O)[C@H](CO)NC(=O)[C@@H](NC(=O)[C@H](Cc1ccccc1)NC(=O)[C@@H](NC(=O)CNC(=O)[C@H](CCC(=O)O)NC(=O)[C@H](C)NC(=O)[C@@H](Cc1cc(F)cc(F)c1)NC(C)=O)[C@@H](C)O)[C@@H](C)CC)C(=O)N[C@@H](C)C(=O)N[C@@H](CCSC)C(=O)N[C@@H](CC(=O)O)C(=O)N[C@@H](CCCCN)C(=O)N[C@H](C(=O)N[C@@H](Cc1c[nH]cn1)C(=O)N[C@@H](CCC(N)=O)C(=O)N[C@@H](CCC(N)=O)C(=O)N[C@@H](CC(=O)O)C(=O)N[C@@H](Cc1ccccc1)C(=O)N[C@H](C(=O)N[C@@H](CC(N)=O)C(=O)N[C@@H](Cc1c[nH]c2ccccc12)C(=O)N[C@@H](CC(C)C)C(=O)N[C@@H](CC(C)C)C(=O)N[C@@H](C)C(=O)N[C@@H](CCC(N)=O)C(=O)N[C@@H](CCCCN)C(N)=O)C(C)C)[C@@H](C)CC` [Example 17], the EC50 came to 0.003 nM and the Emax turned out to be 99.6%.
On to `CC[C@H](C)[C@H](NC(=O)[C@H](CO)NC(=O)[C@H](Cc1ccc(O)cc1)NC(=O)[C@H](CC(=O)O)NC(=O)[C@H](CO)NC(=O)[C@@H](NC(=O)[C@H](Cc1ccccc1)NC(=O)[C@@H](NC(=O)CNC(=O)[C@H](CCC(=O)O)NC(=O)[C@H](C)NC(=O)[C@@H](Cc1ccccc1Cl)NC(C)=O)[C@@H](C)O)[C@@H](C)CC)C(=O)N[C@@H](C)C(=O)N[C@@H](CCSC)C(=O)N[C@@H](CC(=O)O)C(=O)N[C@@H](CCCCN)C(=O)N[C@H](C(=O)N[C@@H](Cc1c[nH]cn1)C(=O)N[C@@H](CCC(N)=O)C(=O)N[C@@H](CCC(N)=O)C(=O)N[C@@H](CC(=O)O)C(=O)N[C@@H](Cc1ccccc1)C(=O)N[C@H](C(=O)N[C@@H](CC(N)=O)C(=O)N[C@@H](Cc1c[nH]c2ccccc12)C(=O)N[C@@H](CC(C)C)C(=O)N[C@@H](CC(C)C)C(=O)N[C@@H](C)C(=O)N[C@@H](CCC(N)=O)C(=O)N[C@@H](CCCCN)C(N)=O)C(C)C)[C@@H](C)CC` [Example 12], for which the EC50 amounted to 0.121 nM and the Emax came to 104%.
As to `CC[C@H](C)[C@H](NC(=O)[C@H](CO)NC(=O)[C@H](Cc1ccc(O)cc1)NC(=O)[C@H](CC(=O)O)NC(=O)[C@H](CO)NC(=O)[C@@H](NC(=O)[C@H](Cc1ccccc1)NC(=O)[C@@H](NC(=O)CNC(=O)[C@H](CCC(=O)O)NC(=O)[C@H](C)NC(=O)[C@@H](Cc1ccc(Cl)cc1)NC(C)=O)[C@@H](C)O)[C@@H](C)CC)C(=O)N[C@@H](C)C(=O)N[C@@H](CCSC)C(=O)N[C@@H](CC(=O)O)C(=O)N[C@@H](CCCCN)C(=O)N[C@H](C(=O)N[C@@H](Cc1c[nH]cn1)C(=O)N[C@@H](CCC(N)=O)C(=O)N[C@@H](CCC(N)=O)C(=O)N[C@@H](CC(=O)O)C(=O)N[C@@H](Cc1ccccc1)C(=O)N[C@H](C(=O)N[C@@H](CC(N)=O)C(=O)N[C@@H](Cc1c[nH]c2ccccc12)C(=O)N[C@@H](CC(C)C)C(=O)N[C@@H](CC(C)C)C(=O)N[C@@H](C)C(=O)N[C@@H](CCC(N)=O)C(=O)N[C@@H](CCCCN)C(N)=O)C(C)C)[C@@H](C)CC` [Example 14], the EC50 is 0.025 nM and the Emax was 106%.

Values taken from US9023986B2, “Glucose-dependent insulinotropic peptide analogs” (Hoffmann-La Roche Inc., priority 2010, dated 2015).
